Source: patent US20040260318A1, “Anastomotic connector devices” (Angiotech International AG, priority 2003, published 2004)

Key:
collagenase expression = assay: Effect of other anti-microtubule agents on IL-1-induced collagenase expression in primary chondrocytes; type: cell-based, calf; settings: pre-incubation of chondrocytes 6 hours, then IL-1 20 ng/ml 18 hours; FIGS. 7A-H
Method: Primary chondrocyte cultures were freshly isolated from calf cartilage. The cells were plated at 2.5×10^6 per ml in 100×20 mm culture dishes and incubated in Ham's F12 medium containing 5% FBS overnight at 37° C. The cells were starved in serum-free medium overnight and then treated with anti-microtubule agents at various concentrations for 6 hours. IL-1 (20 ng/ml) was then added to each plate and the plates incubated for an additional 18 hours. Total RNA was isolated by the acidified guanidine isothiocyanate method and subjected to electrophoresis on a denatured gel. Denatured RNA samples (15 μg) were analyzed by gel electrophoresis in a 1 % denatured gel, transferred to a nylon membrane and hydridized with the ^32P-labeled collagenase cDNA probe. ^32P-labeled glyceraldehyde phosphate […] (GAPDH) cDNA as an internal standard to ensure roughly equal loading. The exposed films were scanned and quantitatively analyzed with ImageQuant.

human fibroblasts = assay: Screening assay for effect on cell proliferation (CYQUANT fluorescence); type: cell-based; settings: Fibroblast, 72 hours incubation, FIG. 2
Method: Fibroblasts at 70-90% confluency are trypsinized, replated at 600 cells/well in media in 96-well plates and allowed to attachment overnight. Mitoxantrone is prepared in DMSO at a concentration of 10^−2 M and diluted 10-fold to give a range of stock concentrations (10^−8 M to 10^−2 M). Drug dilutions are diluted 1/1000 in media and added to cells to give a total volume of 200 μL/well. Each drug concentration is tested in triplicate wells. Plates containing fibroblasts and mitoxantrone are incubated at 37° C. for 72 hours (In vitro toxicol. (1990) 3:219; Biotech. Histochem. (1993) 68: 29; Anal. Biochem. (1993) 213:426).
To terminate the assay, the media is removed by gentle aspiration. A 1/400 dilution of CYQUANT 400× GR dye indicator (Molecular Probes; Eugene, Ore.) is added to […] Cell Lysis buffer, and 200 μL of the mixture is added to the wells of the plate. Plates are incubated at room temperature, protected from light for 3-5 minutes. Fluorescence is read in a fluorescence microplate reader at ˜480 nm excitation wavelength and ˜520 nm emission maxima. […] An average of n=4 replicate experiments is used to determine IC50 values.

[1] = tested on: IL-8 production by THP-1 cells; assay: IL-8 production by macrophages (opsonized zymosan stimulated, ELISA); type: cell-based; settings: Homo sapiens, 24 hours, 1 mg/mL opsonized zymosan, FIG. 10
Method: (§1) The human macrophage cell line, THP-1 is plated in a 12 well plate such that each well contains 1×10^6 cells in 2 mL of media containing 10% FCS. Opsonized zymosan is prepared by resuspending 20 mg of zymosan A in 2 mL of ddH2O and homogenizing until a uniform suspension is obtained. Homogenized zymosan is pelleted at 250 g and resuspended in 4 mL of human serum for a final concentration of 5 mg/mL. and incubated in a 37° C. water bath for 20 minutes to enable opsonization. Geldanamycin is prepared in DMSO at a concentration of 10^−2 M and serially diluted 10-fold to give a range of stock concentrations (10^−8 M to 10^−2 M).
THP-1 cells are stimulated to produce IL-8 by the addition of 1 mg/mL opsonized zymosan. Geldanamycin is added to THP-1 cells by directly adding DMSO stock solutions, prepared earlier, at a 1/1000 dilution, to each well. […]
(§2) After a 24 hour stimulation, supernatants are collected to quantify IL-8 production. IL-8 concentrations in the supernatants are determined by ELISA using recombinant human IL-8 to obtain a standard curve. […] The dilution of Capture Antibody used is lot-specific and is determined empirically. […] Stop Solution (2 N H2SO4) is then added to the wells and a yellow colour reaction is read at 450 nm with λ correction at 570 nm. Mean absorbance is determined from triplicate data readings and the mean background is subtracted. […]

[2] = tested on: MCP-1 production by THP-1 cells; assay: MCP-1 production by macrophages (opsonized zymosan stimulated, ELISA); type: cell-based; settings: Homo sapiens, 24 hours, 1 mg/mL opsonized zymosan, FIG. 11
Method: as §1
THP-1 cells are stimulated to produce MCP-1 by the addition of 1 mg/mL opsonized zymosan. Geldanamycin is added to THP-1 cells by directly adding DMSO stock solutions, prepared earlier, at a 1/1000 dilution, to each well. […]
as §2, with “MCP-1” for “IL-8”

[3] = tested on: IL-1β production by THP-1 cells; assay: IL-1β production by macrophages (opsonized zymosan stimulated, ELISA); type: cell-based; settings: Homo sapiens, 24 hours, 1 mg/mL opsonized zymosan, FIG. 9
Method: as §1
THP-1 cells are stimulated to produce IL-1β by the addition of 1 mg/mL opsonized zymosan. Geldanamycin is added to THP-1 cells by directly adding DMSO stock solutions, prepared earlier, at a 1/1000 dilution, to each well. […]
as §2, with “IL-1β” for “IL-8”

Compound	concentration (as low as) preventing IL-1-induced collagenase expression (collagenase expression)	also measured
[F][Al]([F])[F] [AIF3]	100 nM	–
N#CC1=C(N)Oc2c(ccc3ccccc23)C1c1cccc([N+](=O)[O-])c1 (stereo not shown) [LY290181]	100 nM	–
O=C1c2c(O)ccc(O)c2C(=O)c2c(NCCNCCO)ccc(NCCNCCO)c21 [Mitoxantrone, 9,10-Anthracenedione, 1,4-dihydroxy-5,8-bis[[2-[(2-hydroxyethyl)amino]ethyl]amino]-]	–	IC50 (human fibroblasts): 0.02 µM
[2H]O[2H] [deuterium oxide]	100 nM	–
COC1=C2C[C@@H](C)C[C@H](OC)[C@H](O)[C@@H](C)/C=C(\C)[C@H](OC(N)=O)[C@@H](OC)/C=C\C=C(/C)C(=O)NC(=CC1=O)C2=O [geldanamycin]	–	IC50 [1]: 0.027 µM; IC50 [2]: 0.007 µM; IC50 [3]: 0.02 µM
CCOC(=O)CN [glycine ethyl ester]	100 nM	–
ethylene glycol bis-(succinimidylsuccinate)	100 nM	–
hexylene glycol	100 nM	–
